The conditions of test [1]: read-out: IC50 doses reported by other in vitro studies, cited from earlier work.
Test [2] deals with MelJuSo melanoma cells. Nature of the test: MTS cell viability assay, MelJuSo. It is filed as cell-based. Conditions: Homo sapiens, MEL-JUSO, 24 h, read-out: IC50. As to the method:
(§1) Cells were cultured at indicated densities for 24 h, medium was removed and the incubation was continued in a fresh culture medium containing various GC2 or DTIC concentrations. In control experiments, cells were grown in a culture medium containing GC2 buffer.
(§2) The standard […] (MTS)-3-(4,5-dimethylthiazol-2-yl)-5-(3-carboxymethoxyphenyl)-2-(4-sulphophenyl)-2H-tetrazolium inner salt solution assay was performed in order to examine the cytotoxic/cytostatic effect of GC2 on melanoma cells. Briefly, 7.5×10^3 cells were seeded in 96-well microtiter plates (Nunc). After an overnight incubation, serial dilutions of GC2 or DTIC were added in triplicate to a final volume of 100 μl. The blank was represented by a culture medium without cells containing the highest GC2 or DTIC concentration. After 24 h of incubation 20 μl MTS was added to each well and all samples were incubated for 3 h at 37° C. An absorbance of each well was read at 450 nm in a microplate reader. A percentage of cell viability was calculated considering that 100% cell viability was represented by an absorbance of untreated samples […]. Alternatively, the number of viable cells was determined by Trypan blue exclusion test. Melanoma cells treated with GC2 were trypsinized and cells negative for blue staining (viable cells) were counted using a hemocytometer. […]
In general terms: Tetrazolium dyes change colour on reduction, which living cells bring about.

The test system of test [3] is SKMel28 melanoma cells. Nature of the test: MTS cell viability assay, SKMel28. It is filed as cell-based. The following applies: Homo sapiens, SK-MEL-28, SKMel28, 24 h, read-out: IC50. As to the method:
as §1, §2

Test [4] deals with MNT-1 melanoma cells. Briefly: MTS cell viability assay, MNT-1. It is filed as cell-based. The following applies: Homo sapiens, MNT-1, 24 h, read-out: IC50. As to the method:
as §1, §2

Test [5] relates to B16F10 melanoma cells. Briefly: MTS cell viability assay, B16F10. The following applies: Mus musculus, B16-F10, B16F10, 24 h, read-out: IC50. The class given is cell-based, murine. As to the method: as §1, §2
The test system of test [6] is B16D2 melanoma cells. Briefly: MTS cell viability assay, B16D2. It is filed as cell-based. The following applies: B16D2, 24 h, read-out: IC50. As to the method:
as §1, §2

As usually defined, the IC50 is the point on the concentration scale where inhibition reaches its midpoint.

Where two headings read alike, the source gives them in different places.

For the molecule `CCCCCCCCCCCCC/C=C/[C@@H](O)[C@H](CO)NC(C)=O` [C2-ceramide], the IC50 in test [1] (literature data) is 100 µM.
In the case of `CN(C)N=Nc1[nH]cnc1C(N)=O` [DTIC, 5-(3,3-dimethyl-1-triazeno)-imidazole-4-carboxamide, reference compound], the IC50 was 1000 µM in test [1] (literature data (Lev et al. 2004)); 3000 to 4000 µM in test [2]; 3000 to 4000 µM in test [3]; 3000 to 4000 µM in test [4]; 3000 to 4000 µM in test [5]; 3000 to 4000 µM in test [6].
